Data as given in ChEMBL document CHEMBL1201862, “PubChem BioAssay data set” (2004).
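Following 48 hours of exposure in 96-well plates, responses at five concentrations were used to interpolate endpoints linearly. GI50 is the concentration that inhibits growth by half.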 Activity calls are given as the source filed them. No stated cut-off is given here; in the data, active = GI50 up to about 1.1 µM and inactive = higher.

What was measured:
Assay in all cases: growth of human tumour cells (NCI), 48 h
NCI-H226 = tested on: NCI-H226
UACC-62 = tested on: UACC-62
NCI/ADR-RES = tested on: NCI/ADR-RES
HCC 2998 = tested on: HCC 2998
HCT-15 = tested on: HCT-15
T47D = tested on: T47D
CCRF-CEM = tested on: CCRF-CEM
NCI-H460 = tested on: NCI-H460
HL-60 = tested on: HL-60
UO-31 = tested on: UO-31
UACC-257 = tested on: UACC-257
DU-145 = tested on: DU-145
Malme-3M = tested on: Malme-3M
HOP-62 = tested on: HOP-62
OVCAR-5 = tested on: OVCAR-5
MOLT-4 = tested on: MOLT-4
MDA-MB-435 = tested on: MDA-MB-435
SF-268 = tested on: SF-268
SK-MEL-2 = tested on: SK-MEL-2
SF-295 = tested on: SF-295

Row | Structure (SMILES) | GI50 (NCI-H226) | GI50 (UACC-62) | GI50 (NCI/ADR-RES) | GI50 (HCC 2998) | GI50 (HCT-15) | GI50 (T47D) | GI50 (CCRF-CEM) | GI50 (NCI-H460) | GI50 (HL-60) | GI50 (UO-31) | GI50 (UACC-257) | GI50 (DU-145) | GI50 (Malme-3M) | GI50 (HOP-62) | GI50 (OVCAR-5) | GI50 (MOLT-4) | GI50 (MDA-MB-435) | GI50 (SF-268) | GI50 (SK-MEL-2) | GI50 (SF-295)
1 | O=C1c2cccc(NCCNCCO)c2C(=O)c2cccc(NCCNCCO)c21 | 0.998 µM (active) | 1.81 µM (inactive) | 10.9 µM (inactive) | 0.802 µM (active) | 5.28 µM | 1.69 µM (inactive) | 0.267 µM (active) | 1.55 µM (inactive) | 1.6 µM (inactive) | 4.72 µM (inactive) | 3.04 µM (inactive) | 0.612 µM (active) | 1.82 µM (inactive) | 1.29 µM (inactive) | 1.53 µM (inactive) | 0.443 µM (active) | 1.25 µM (inactive) | 0.518 µM (active) | 1.28 µM (inactive) | 1.79 µM (inactive)
2 | CCOC(=O)C(C(=O)OCC)=C1NC2(c3ccccc3Nc3ccccc32)C(C#N)S1 (stereo unspecified) | 12 µM (inactive) | 10.3 µM (inactive) | 10.4 µM (inactive) | 4.42 µM (inactive) | 5.78 µM | 4.66 µM (inactive) | 6.08 µM (inactive) | 3.79 µM (inactive) | 21.9 µM (inactive) | 12.7 µM (inactive) | 12.8 µM (inactive) | 12 µM (inactive) | 15.3 µM (inactive) | 12.2 µM (inactive) | 16.7 µM (inactive) | 3.53 µM (inactive) | 7.73 µM (inactive) | 13.5 µM (inactive) | 11.6 µM (inactive) | 11.1 µM (inactive)
3 | CSc1ncc2c(C#N)c3[nH]c4ccccc4n3c(=O)c2n1 | 34.1 µM (inactive) | 4.61 µM (inactive) | 4.89 µM (inactive) | 10.9 µM (inactive) | 9.71 µM | 22.9 µM (inactive) | 4.92 µM (inactive) | 13.3 µM (inactive) | 7.29 µM (inactive) | 8.13 µM (inactive) | 30.7 µM (inactive) | 28.8 µM (inactive) | – | 19.8 µM (inactive) | 55.1 µM (inactive) | 4.28 µM (inactive) | 16.9 µM (inactive) | 28 µM (inactive) | 8.49 µM (inactive) | 9.84 µM (inactive)
4 | O=C1C=CC(=O)c2ncccc21 | 12.1 µM (inactive) | 2.99 µM (inactive) | 11.3 µM (inactive) | 7.26 µM (inactive) | 2.08 µM | 2.19 µM (inactive) | 0.787 µM (active) | 3.98 µM (inactive) | 0.31 µM (active) | 4.43 µM (inactive) | 5.05 µM (inactive) | 7.8 µM (inactive) | 3.84 µM (inactive) | 5.11 µM (inactive) | 17.5 µM (inactive) | 2.36 µM (inactive) | 5.7 µM (inactive) | 10.9 µM (inactive) | 13.6 µM (inactive) | 7.6 µM (inactive)
5 | C=C1CC(COc2cc(=O)oc3ccccc23)(c2ccccc2)OC1=O (stereo unspecified) | 8.17 µM (inactive) | 1.41 µM (inactive) | 2.96 µM (inactive) | 1.05 µM (active) | 1.82 µM | 2.25 µM (inactive) | 0.625 µM (active) | 9.29 µM (inactive) | 0.407 µM (active) | 6.64 µM (inactive) | 1.99 µM (inactive) | 2.44 µM (inactive) | 1.33 µM (inactive) | 8.53 µM (inactive) | 8.07 µM (inactive) | 7.94 µM (inactive) | 3.7 µM (inactive) | 7.33 µM (inactive) | 1.08 µM (active) | 5.15 µM (inactive)
6 | COC(=O)C1=C(C)NC(C)=C(C(=O)OC)C1c1cccc(N=O)c1 | 16.3 µM (inactive) | 14.3 µM (inactive) | 22.5 µM (inactive) | 22.3 µM (inactive) | 17.8 µM | 11.6 µM (inactive) | 3.55 µM (inactive) | 16 µM (inactive) | 3.85 µM (inactive) | 8.38 µM (inactive) | 16.6 µM (inactive) | 15.8 µM (inactive) | 15.4 µM (inactive) | 21.1 µM (inactive) | 18 µM (inactive) | 4.76 µM (inactive) | 16.1 µM (inactive) | 17 µM (inactive) | 15.6 µM (inactive) | 52.8 µM (inactive)
7 | Nc1nc(Cl)cc(NCC2(CO)CC(=O)C2)n1 | > 100 µM (inactive) | 86.7 µM (inactive) | > 100 µM (inactive) | > 100 µM (inactive) | > 100 µM | 21.2 µM (inactive) | > 100 µM (inactive) | > 100 µM (inactive) | > 100 µM (inactive) | > 100 µM (inactive) | > 100 µM (inactive) | > 100 µM (inactive) | > 100 µM (inactive) | > 100 µM (inactive) | > 100 µM (inactive) | > 100 µM (inactive) | > 100 µM (inactive) | > 100 µM (inactive) | > 100 µM (inactive) | > 100 µM (inactive)
8 | COc1cc(C2S/C(=C/c3ccccc3)C(=O)N2c2cc(Cl)ccc2Cl)cc(OC)c1OC (stereo unspecified) | 40.4 µM (inactive) | 31.8 µM (inactive) | 28.2 µM (inactive) | > 100 µM (inactive) | 38.3 µM | 53.7 µM (inactive) | 35.2 µM (inactive) | > 100 µM (inactive) | 31 µM (inactive) | 55.7 µM (inactive) | > 100 µM (inactive) | 35 µM (inactive) | 32.8 µM (inactive) | 46.7 µM (inactive) | – | 34.8 µM (inactive) | 34.1 µM (inactive) | 21.6 µM (inactive) | 38.8 µM (inactive) | 60.3 µM (inactive)
9 | O=C(Nc1ccc2[nH]c(C(=O)N3CC(CCl)c4c3cc([N+](=O)[O-])c3ccccc43)cc2c1)c1cc2ccccc2o1 (stereo unspecified) | 48.9 µM (inactive) | > 100 µM (inactive) | > 50.6 µM (inactive) | > 46.9 µM (inactive) | > 63.4 µM | > 55.2 µM (inactive) | 46.1 µM (inactive) | > 37.5 µM (inactive) | 22.1 µM (inactive) | > 100 µM (inactive) | > 100 µM (inactive) | > 51.6 µM (inactive) | > 100 µM (inactive) | > 100 µM (inactive) | > 100 µM (inactive) | – | > 100 µM (inactive) | > 100 µM (inactive) | > 57 µM (inactive) | 395 µM (inactive)
10 | Cc1ccc(NC(=S)N/N=C(/c2ccccc2)c2ccccn2)cc1 | 0.124 µM (active) | 0.304 µM (active) | 0.0302 µM (active) | 2.22 µM (inactive) | < 0.019 µM | < 0.0509 µM (active) | 0.0109 µM (active) | 0.117 µM (active) | < 0.0121 µM (active) | 0.177 µM (active) | < 0.0156 µM (active) | 0.938 µM (active) | – | 0.16 µM (active) | 0.0233 µM (active) | < 0.0118 µM (active) | 0.4 µM (active) | < 0.0233 µM (active) | 4.52 µM (inactive) | 0.212 µM (active)
11 | Cc1cccc(-c2cc(O)c3ccc(C)nc3n2)c1 | 0.367 µM (active) | 0.41 µM (active) | 0.141 µM (active) | 1.07 µM (active) | 0.194 µM | 0.249 µM (active) | 0.354 µM (active) | 0.334 µM (active) | 0.0902 µM (active) | 3.77 µM (inactive) | – | 0.598 µM (active) | 0.296 µM (active) | 0.546 µM (active) | 0.723 µM (active) | 0.421 µM (active) | 0.0294 µM (active) | 0.723 µM (active) | 0.421 µM (active) | 0.278 µM (active)
12 | C1=C\SS/C=C\SS/1 | > 100 µM (inactive) | 52.4 µM (inactive) | 46 µM (inactive) | 53.3 µM (inactive) | 14.4 µM | 55.1 µM (inactive) | 2.28 µM (inactive) | 23.9 µM (inactive) | 7.57 µM (inactive) | 22.2 µM (inactive) | 38.9 µM (inactive) | > 100 µM (inactive) | – | 54.6 µM (inactive) | 35.3 µM (inactive) | 12.9 µM (inactive) | 57.5 µM (inactive) | 40.5 µM (inactive) | 48.4 µM (inactive) | 58.1 µM (inactive)
13 | C[C@]12CC[C@@H]3c4cc(C=O)c(OCc5ccccc5)cc4CC[C@H]3[C@@H]1CCC2OCc1ccccc1 (stereo partly specified) | 32.8 µM (inactive) | > 100 µM (inactive) | > 100 µM (inactive) | > 100 µM (inactive) | > 100 µM | > 100 µM (inactive) | > 100 µM (inactive) | > 100 µM (inactive) | > 100 µM (inactive) | > 100 µM (inactive) | 58.9 µM (inactive) | > 100 µM (inactive) | – | > 100 µM (inactive) | > 100 µM (inactive) | > 100 µM (inactive) | > 100 µM (inactive) | > 100 µM (inactive) | > 100 µM (inactive) | > 100 µM (inactive)
14 | C[C@H](CCC(=O)O)[C@H]1CC[C@H]2[C@@H]3C(=O)C[C@@H]4C[C@H](O)CC[C@]4(C)[C@H]3C[C@H](O)[C@]12C | > 100 µM (inactive) | > 100 µM (inactive) | > 100 µM (inactive) | > 100 µM (inactive) | > 100 µM | > 100 µM (inactive) | > 100 µM (inactive) | > 100 µM (inactive) | > 100 µM (inactive) | > 100 µM (inactive) | > 100 µM (inactive) | > 100 µM (inactive) | > 100 µM (inactive) | > 100 µM (inactive) | > 100 µM (inactive) | > 100 µM (inactive) | > 100 µM (inactive) | > 100 µM (inactive) | > 100 µM (inactive) | –
15 | COc1cc2c3c(c1OC)C1(C=CC(=O)C=C1)CC3NCC2 (stereo unspecified) | > 100 µM (inactive) | > 100 µM (inactive) | > 100 µM (inactive) | > 100 µM (inactive) | > 100 µM | > 100 µM (inactive) | 48.8 µM (inactive) | > 100 µM (inactive) | 32.6 µM (inactive) | – | > 100 µM (inactive) | > 100 µM (inactive) | > 100 µM (inactive) | > 100 µM (inactive) | > 100 µM (inactive) | > 100 µM (inactive) | > 100 µM (inactive) | > 100 µM (inactive) | > 100 µM (inactive) | > 100 µM (inactive)
